{"source": "patent US20170105969A1", "about": "“CENICRIVIROC FOR THE TREATMENT OF HIV-2 INFECTION” (Tobira Therapeutics, Inc., priority 2014, published 2017)", "target": "T1, CCR1 (Homo sapiens, UniProt P32246)", "T1 sequence (P32246 1-355)": "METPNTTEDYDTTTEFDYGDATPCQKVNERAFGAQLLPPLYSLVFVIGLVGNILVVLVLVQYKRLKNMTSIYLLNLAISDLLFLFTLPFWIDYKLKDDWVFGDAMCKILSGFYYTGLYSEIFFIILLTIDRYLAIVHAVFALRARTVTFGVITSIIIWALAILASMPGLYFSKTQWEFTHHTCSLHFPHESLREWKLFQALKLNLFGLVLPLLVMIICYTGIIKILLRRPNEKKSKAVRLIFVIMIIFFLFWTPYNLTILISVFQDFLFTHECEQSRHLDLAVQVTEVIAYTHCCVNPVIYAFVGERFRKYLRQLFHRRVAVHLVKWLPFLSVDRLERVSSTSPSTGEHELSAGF", "experiment": "Ligand binding to CCR1", "data": [{"compound": "CCCCOCCOc1ccc(-c2ccc3c(c2)/C=C(/C(=O)Nc2ccc([S@@+]([O-])Cc4cncn4CCC)cc2)CCCN3CC(C)C)cc1", "note": "[CVC, (S)-8-[4-(2-Butoxyethoxy)phenyl]-1-isobutyl-N-(4-{[(1-propyl-1H-imidazol-5-yl)methyl]sulfinyl}phenyl)-1,2,3,4-tetrahydro-1-benzazocine-5-carboxamide]", "values": [{"measurement": "inhibition of ligand binding (in words)", "value": "did not inhibit"}]}]}
